Activity data for 3 compounds are collected here from ChEMBL document CHEMBL2074082, “Characterization of the monocarboxylate transporter 1 expressed in Xenopus laevis oocytes by changes in cytosolic pH” (Biochem J, 1998).

Assay [1] deals with T1, Monocarboxylate transporter 1 (Rattus norvegicus) (UniProt P53987).
T1 sequence (whole entry): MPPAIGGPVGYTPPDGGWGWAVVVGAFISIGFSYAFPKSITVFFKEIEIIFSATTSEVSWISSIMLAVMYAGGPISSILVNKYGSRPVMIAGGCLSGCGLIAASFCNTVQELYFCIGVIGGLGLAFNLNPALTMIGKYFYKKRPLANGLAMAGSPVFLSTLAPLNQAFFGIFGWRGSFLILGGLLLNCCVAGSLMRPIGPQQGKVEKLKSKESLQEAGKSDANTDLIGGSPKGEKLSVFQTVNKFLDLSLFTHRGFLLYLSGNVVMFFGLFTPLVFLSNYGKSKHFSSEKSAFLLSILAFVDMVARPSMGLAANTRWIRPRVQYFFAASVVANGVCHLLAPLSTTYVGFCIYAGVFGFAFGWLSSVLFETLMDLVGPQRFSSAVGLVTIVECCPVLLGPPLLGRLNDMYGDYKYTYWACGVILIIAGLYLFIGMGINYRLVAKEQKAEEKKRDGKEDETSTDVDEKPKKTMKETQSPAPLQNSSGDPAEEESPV
The assay is described as follows: TP_TRANSPORTER: inhibition of lactate uptake(pHi charge) in Xenopus laevis oocytes. The format is functional, cell-based. As to conditions: Oocyte.

Assay [2] deals with T1, Monocarboxylate transporter 1 (Rattus norvegicus). The assay is described as follows: TP_TRANSPORTER: change in intracellular pH(pHi)value in Xenopus laevis oocytes. It is filed as functional, cell-based. As to conditions: Oocyte.

As to `N#C/C(=C\c1ccc(O)cc1)C(=O)O`, the Activity result in assay [1] is “inhibitor [+]”.

With `CC(=O)CC(=O)O`, in assay [2], the Activity entry was “substrate [+]”. With `CC(O)CC(=O)O` (racemic), the Activity entry in assay [2] was “substrate [+]”.
